# From patent US4593104A, “2-halo-N-(azole-1-yl-methyl)-substituted acetanilides” (BASF Aktiengesellschaft, priority 1976, dated 1986)
# Tests used:
# Assay in all cases: preemergence treatment in the greenhouse, % damage
# Cyp. diff. = type: in vivo
# Summary of the method: (§1)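 Greenhouse herbicide test at rates in kg/ha a.i. Pre-em soil spray right after sowing, then irrigation and hooding; post-em on 3–10 cm plants. Rated 0–100 over 4–6 weeks.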
# Amar. retro. = type: in vivo
# Summary of the method: as §1
# Sida spin. = type: in vivo
# Summary of the method: as §1
# Lept. spp. = type: in vivo
# Summary of the method: as §1
# Panic. virg. = type: in vivo
# Summary of the method: as §1
# Echin. c.g. = type: in vivo
# Summary of the method: as §1
# Cenchr. ech. = type: in vivo
# Summary of the method: as §1
# Solanum nigrum = type: in vivo
# Summary of the method: as §1
# Ipom. spp. = type: in vivo
# Summary of the method: as §1
# Glyc. max = type: in vivo, Glycine max
# Summary of the method: as §1
# Gossyp. hirs. = type: in vivo, Gosspyium hirsutum
# Summary of the method: as §1
smiles,measurement,setting,value
"CCc1cccc(CC)c1N(COC)C(=O)CCl [bekannt, reference compound]",% damage,Cyp. diff.; 0.25 kg/ha,65%
same,% damage,Cyp. diff.; 0.5 kg/ha,70%
same,% damage,Cyp. diff.; 1.0 kg/ha,78%
same,% damage,Cyp. diff.; 2.0 kg/ha,100%
same,% damage,Amar. retro.; 0.25 kg/ha,68%
same,% damage,Amar. retro.; 0.5 kg/ha,81%
same,% damage,Amar. retro.; 1.0 kg/ha,88%
same,% damage,Amar. retro.; 2.0 kg/ha,92%
same,% damage,Sida spin.; 1.0 kg/ha,10%
same,% damage,Sida spin.; 2.0 kg/ha,70%
same,% damage,Lept. spp.; 0.25 kg/ha,100%
same,% damage,Lept. spp.; 0.5 kg/ha,100%
same,% damage,Lept. spp.; 1.0 kg/ha,100%
same,% damage,Lept. spp.; 2.0 kg/ha,100%
same,% damage,Panic. virg.; 0.25 kg/ha,30%
same,% damage,Panic. virg.; 0.5 kg/ha,45%
same,% damage,Panic. virg.; 1.0 kg/ha,92%
same,% damage,Panic. virg.; 2.0 kg/ha,100%
same,% damage,Echin. c.g.; 0.25 kg/ha,45%
same,% damage,Echin. c.g.; 0.5 kg/ha,75%
same,% damage,Echin. c.g.; 1.0 kg/ha,90%
same,% damage,Echin. c.g.; 2.0 kg/ha,95%
same,% damage,Cenchr. ech.; 0.25 kg/ha,92%
same,% damage,Cenchr. ech.; 0.5 kg/ha,95%
same,% damage,Cenchr. ech.; 1.0 kg/ha,100%
same,% damage,Cenchr. ech.; 2.0 kg/ha,100%
same,% damage,Solanum nigrum; 0.25 kg/ha,50%
same,% damage,Solanum nigrum; 0.5 kg/ha,73%
same,% damage,Solanum nigrum; 1.0 kg/ha,90%
same,% damage,Solanum nigrum; 2.0 kg/ha,90%
same,% damage,Ipom. spp.; 1.0 kg/ha,20%
same,% damage,Ipom. spp.; 2.0 kg/ha,30%
same,% damage,Glyc. max; 0.25 kg/ha,0%
same,% damage,Glyc. max; 0.5 kg/ha,0%
same,% damage,Glyc. max; 1.0 kg/ha,0%
same,% damage,Glyc. max; 2.0 kg/ha,0%
same,% damage,Gossyp. hirs.; 0.25 kg/ha,0%
same,% damage,Gossyp. hirs.; 0.5 kg/ha,6%
same,% damage,Gossyp. hirs.; 1.0 kg/ha,20%
same,% damage,Gossyp. hirs.; 2.0 kg/ha,45%
